Like-named read-outs stand apart in the source and are kept apart here.
Experiments:
PmHS2 [1] = assay: Donor substrate specificity of PmHS2 by HPLC (Example 1); type: biochemical, Pasteurella multocida; conditions: acceptor GlcAα2AA 1 mM, UDP-sugar 1 mM, MnCl2 10 mM, pH 6.5, 37° C.
Method: pH profile by HPLC. Typical enzymatic assays were performed in a 10 μl reaction mixture containing a buffer (100 mM) with a pH in the range of 4.0-10.0, UDP-GlcNAc (1 mM), GlcAβ2AA (1 mM), MnCl2 (10 mM) and KfiA (9.0 μg) or PmHS2 (0.25 μg). Buffers used were: Na2HPO4/citric acid, pH 4.0; MES, pH 5.0-6.5; TrisHCl, pH 7.0-9.0; and CAPS, pH 10.0. Reactions were allowed to proceed for 30 min at 37° C. and were quenched by adding ice-cold 10% (v/v) acetonitrile to make 100-fold dilutions. The samples were then kept on ice until an aliquot of 8 μl was injected and analyzed by a Shimadzu LC-2010A system equipped with a membrane on-line degasser, a temperature control unit and a fluorescence detector. A reverse phase Premier C18 column (250 9 4.6 mm I.D., 5 μm particle size, Shimadzu) protected with a C18 guard column cartridge was used. The mobile phase was 25% (v/v) acetonitrile. The fluorescent compounds GlcAβ2AA and GlcNAcα1-4GlcAβ2AA were detected by excitation at 315 nm and emission at 400 nm.
Substrate specificity of KfiA and PmHS2. All reactions were carried out in duplicate at 37° C. in MES (100 mM, pH 6.5) containing an UDP-GlcNAc or its derivatives (1 mM), […] (1 mM), MnCl2 (10 mM) and KfiA ([…] PmHS2 (2.5×10^−2 μg μl^−1). At 30 min, 4 h or 16 h, aliquots of reaction mixture were withdrawn and were quenched by adding ice-cold 10% (v/v) acetonitrile to make 100-fold dilutions. The assays were analyzed by HPLC.

PmHS2 [2] = assay: Small-scale PmHS2 donor substrate test by TLC; type: biochemical, Pasteurella multocida; conditions: GlcAβ2AAMe 10 mM, donor 15 mM, MgCl2 10 mM, PmHS2 0.5 mg/mL, pH 7.5, 37° C., 12 hr
Method: Prior to applying the one-pot three-enzyme system shown in FIG. 16 to the preparative-scale synthesis of the disaccharides, UDP-GlcNAc and derivatives F17-1-F17-12 were tested as donor substrates for PmHS2 in small-scale reaction containing Tris-HCl buffer (100 mM, pH 7.5), GlcAβ2AAMe (10 mM), UDP-GlcNAc or a derivative (15 mM), MgCl2 (10 mM), and PmHS2 (0.5 mg/mL). The reactions were carried out at 37° C. for 12 hr and analyzed by thin layer chromatography (TLC).

[3] = test system: T1, MBP-KfiA-His6 (Escherichia coli); assay: GlcNAcT donor substrate specificity of MBP-KfiA-His6 (Example 12); type: biochemical, E. coli; conditions: acceptor GlcAβ2AA 1 mM, UDP-sugar 1 mM, MnCl2 10 mM, KfiA 2.8 μg μl^−1, 24 h, 37° C.
T1 construct: made in house; host or cells: E. coli BL21(DE3) co-expressing chaperone plasmid pGro7
Method: (§1) PmHS2, KfiA, and related fusion proteins were expressed, purified, and characterized as described in Example 1. Reactions with UDP-sugars were carried out in duplicate at 37° C. in MES (100 mM, pH 6.5) containing UDP-GlcNAc or one of its derivatives (1 mM), GlcAβ2AA (1 mM), MnCl2 (10 mM) and KfiA (2.8 μg μl^−1) or PmHS2 (1.1 μg μl^−1) for 24 h. The reaction mixtures were stopped by adding ice-cold 10% (v/v) acetonitrile to make 100-fold dilutions and the mixtures were analyzed by HPLC as described for the pH profile.
(§2) Substrate specificity of the GlcNAcT activities of MBP-KfiA-his6 and his6-PmHS2. […] The reactions were easily analyzed by high performance liquid chromatography (HPLC) equipped with a fluorescence detector using an excitation wavelength of 315 nm and an emission wavelength of 400 nm to determine the ratio of the fluorescent disaccharide product formed and the fluorescent GlcAβ2AA acceptor.

His6-PmHS2 = assay: GlcNAcT donor substrate specificity of His6-PmHS2 (Example 12); type: biochemical, Pasteurella multocida; conditions: acceptor GlcAβ2AA 1 mM, UDP-sugar 1 mM, MnCl2 10 mM, PmHS2 1.1 μg μl^−1, 24 h, 37° C.
Method: as §1, §2

[4] = test system: CC(=O)N[C@H]1C(O)O[C@H](CO)[C@@H](O)[C@@H]1O; assay: purified protein, by the assay type; conditions: other: substrates ATP and GlcNAc, one varied, other fixed at 1 mM, 37° C., 10 min, pH 7.5
Method: (§6) Kinetics by CE assays. Reactions were carried out in duplicate at 37° C. for 10 min in a total volume of 20 μL in Tris-HCl buffer (200 mM, pH 7.5) containing MgCl2 (1 mM), ATP, GlcNAc or GalNAc, and NahK (0.25 μM when GlcNAc and ATP were used as substrates, 0.5 μM when GalNAc and ATP were used as substrates). Apparent kinetic parameters were obtained by varying the ATP concentration from 0.1-5.0 mM (0.1 mM, 0.2 mM, 0.4 mM, 1 mM, 2 mM, and 5 mM) at a fixed concentration of GlcNAc or GalNAc (1 mM), or varying the concentration of GlcNAc or GalNAc (0.1 mM, 0.2 mM, 0.4 mM, 1 mM, 2 mM, and 5 mM) at a fixed concentration of ATP (1 mM) and fitting the data to the Michaelis-Menten equation using Grafit 5.0.

[5] = test system: CC(=O)N[C@H]1C(O)O[C@H](CO)[C@H](O)[C@@H]1O; assay: purified protein, by the assay type; conditions: other: substrates ATP and GalNAc, one varied, other fixed at 1 mM, 37° C., 10 min, pH 7.5
Method: as §6

[6] = test system: Nc1ncnc2c1ncn2[C@@H]1O[C@H](COP(=O)(O)OP(=O)(O)OP(=O)(O)O)[C@@H](O)[C@H]1O; assay: purified protein, by the assay type; conditions: one varied, other fixed at 1 mM, 37° C., 10 min, pH 7.5
Method: as §6

NahK_ATCC15697 = NahK_ATCC15697 (Bifidobacterium longum, UniProt B7GN78); assay: Substrate specificity CE assay, NahK_ATCC15697; type: biochemical, Bifidobacterium infantis; conditions: substrate 1 mM
Method: (§3) Substrates specificity assays. GlcNAc, GalNAc, and their derivatives (1 mM) were used as substrates in the presence of ATP (1 mM) and MgCl2 (5 mM) in a Tris-HCl buffer (pH 8.0, 200 mM) to analyze the substrate specificity of NahKs. Two concentrations (0.75 μM or 15 μM) of each NahK were used and the reactions were allowed to proceed for 10 min (for 0.75 μM NahK) or 30 min (for 15 μM NahK) at 37° C. […] All other conditions were the same as for GlcNAc, GalNAc, and their derivatives.
(§4) Capillary electrophoresis (CE) assays. Based on the detection of ADP and ATP in the reaction mixture by a UV detector, a capillary electrophoresis-based method was developed to directly measure the formation of ADP and N-acetylhexosamine-1-phosphate from ATP and N-acetylhexosamine for characterizing the activities of NahKs.

SpGalK = biological target: T2, SpGalK (Streptococcus pneumoniae serotype 4, UniProt Q97NZ6); assay: Kinase reaction monitored by CE (ATP to ADP), SpGalK; type: biochemical, Streptococcus pneumoniae TIGR4; conditions: monosaccharide 15 mM, ATP 18 mM, 37° C.
T2 construct: made in house
Method: (§5) Capillary electrophoresis (CE) and thin-layer chromatograph (TLC) assays for kinase reactions. […] These conditions were similar to those used for preparative-scale synthesis. After 1 hr, 4 hr, and 24 hr, an aliquot of 8 μL was withdrawn from each reaction mixture, boiled in a water bath for 5 min and stored at −20° C. until being analyzed by capillary electrophoresis (CE) and TLC. For TLC analysis, 0.5 μL of each sample was directly spotted on TLC plates, developed using suitable developing solvents, and stained with anisaldehyde sugar stain. For CE analysis, 1.5 μL of each sample was diluted into 30 μL and subjected to CE analysis as described above for pH profile studies.

NahK_ATCC55813 = NahK_ATCC55813 (Bifidobacterium longum subsp. longum, UniProt E8MF12, D7V/R348H); type: biochemical; parameters: made in house; host or cells: E. coli BL21(DE3); conditions: substrate 1 mM
Method: as §3, §4

EcGalK = biological target: T3, EcGalK (Escherichia coli, UniProt P0A6T3); assay: Kinase reaction monitored by CE (ATP to ADP), EcGalK; type: biochemical; conditions: monosaccharide 15 mM, ATP 18 mM, 37° C.
T3 construct: made in house
Method: as §5

AtGlcAK = biological target: T4, AtGlcAK (Arabidopsis thaliana, UniProt Q93ZC9, I297M); assay: AtGlcAK substrate specificity CE assay; type: biochemical; conditions: High enzyme Conc. (2.1 μg in 20 μL, 60 min, 37° C.)
T4 construct: made in house; host or cells: E. coli BL21 (DE3)
Method: Substrate specificity assays. […] The reactions were quenched and assayed with the same method as those for pH profile. All reactions were performed in duplicates.

[7] = other: substrates ATP and GalNAc
[8] = other: substrates ATP and GlcNAc
[9] = 0.75 μM enzyme, 10 min at 37° C., ATP 1 mM
[10] = 15 μM enzyme, 30 min at 37° C., ATP 1 mM (Table 2)

CC(=O)N[C@H]1[C@@H](OP(=O)(O)OP(=O)(O)OC[C@H]2O[C@@H](n3ccc(=O)[nH]c3=O)[C@H](O)[C@@H]2O)O[C@H](CN=[N+]=[N-])[C@@H](O)[C@@H]1O [Compound F17-8, Uridine 5′-diphospho-2-acetamido-6-azido-2,6-dideoxy-α-D-glucopyranoside]
donor substrate for PmHS2 (PmHS2 [1]): is a substrate for PmHS2 | donor substrate for PmHS2 (PmHS2 [2]): tolerable donor substrates | donor substrate for MBP-KfiA-His6 [3]: can be used by MBP-KfiA-His6 | donor substrate for the α1-4GlcNAcT activity of His6-PmHS2 (His6-PmHS2): suitable donor substrates for His6-PmHS2

NahK_ATCC15697 (Bifidobacterium longum subsp. infantis ATCC 15697 = JCM 1222 = DSM 20088)
Km [4]: 60 ± 10 µM | kcat [4]: 0.95 ± 0.01 s⁻¹ | kcat/Km [4]: 15800 M⁻¹ s⁻¹ | Km [5]: 90 ± 50 µM | kcat [5]: 0.46 ± 0.07 s⁻¹ | kcat/Km [5]: 5100 M⁻¹ s⁻¹ | Km [6, 7]: 80 ± 30 µM | kcat [6, 7]: 0.38 ± 0.02 s⁻¹ | kcat/Km [6, 7]: 4800 M⁻¹ s⁻¹ | Km [6, 8]: 100 ± 30 µM | kcat [6, 8]: 1.1 ± 0.1 s⁻¹ | kcat/Km [6, 8]: 11000 M⁻¹ s⁻¹

NahK_ATCC55813 (Bifidobacterium longum subsp. longum JCM 1217; D7V/R348H)
Km [4]: 60 ± 10 µM | kcat [4]: 1.1 ± 0.1 s⁻¹ | kcat/Km [4]: 18300 M⁻¹ s⁻¹ | Km [5]: 80 ± 30 µM | kcat [5]: 0.57 ± 0.04 s⁻¹ | kcat/Km [5]: 7100 M⁻¹ s⁻¹

[N-]=[N+]=NC1C(O)OC(CO)[C@H](O)C1O (stereo partly shown) [GalN3]
Percentage Conversion (NahK_ATCC15697; [9]): 0% | Percentage Conversion (NahK_ATCC15697; [10]): 7.6 ± 0.1% | ATP Conversion (SpGalK; 1 hr): 45.7% | ATP Conversion (SpGalK; 4 hr): 79.0% | ATP Conversion (SpGalK; 24 hr): 81.2% | Percentage Conversion (NahK_ATCC55813; [9]): 0% | Percentage Conversion (NahK_ATCC55813; [10]): 4.3 ± 0.1%

OCC1OC(O)CC(O)[C@H]1O (stereo partly shown) [T6-2 2-deoxyGal, 2-deoxyGal]
ATP Conversion (SpGalK; 1 hr): 80.3% | ATP Conversion (SpGalK; 4 hr): 89.5% | ATP Conversion (EcGalK; 1 hr): 78.5% | ATP Conversion (EcGalK; 4 hr): 87.6%

N[C@H]1C(O)O[C@H](CO)[C@H](O)[C@@H]1O (stereo partly shown) [T6-3 GalNH2, galactosamine]
ATP Conversion (EcGalK; 1 hr): 90.2%

O=C[C@H](O)[C@@H](O)[C@H](O)CO [Xyl, xylose]
Percentage conversion of ATP (AtGlcAK): <5%

CC(=O)NC1C(O)OC(CO)[C@H](O)[C@@H]1O (stereo partly shown) [GalNAc, N-acetylgalactosamine]
Percentage Conversion (NahK_ATCC15697; [9]): 12.5 ± 0.1% | ATP Conversion (SpGalK; 1 hr): 11.8% | ATP Conversion (SpGalK; 4 hr): 24.7% | ATP Conversion (SpGalK; 24 hr): 69.5% | Percentage Conversion (NahK_ATCC55813; [9]): 19.9 ± 0.1%

From patent publication US10160986B2, “Chemoenzymatic synthesis of heparin and heparan sulfate analogs” (The Regents of the University of California, priority 2011, dated 2018)
